From patent US8329691B2, “Amide compounds and use of the same” (Takeda Pharmaceutical Company Limited, priority 2007, dated 2012) come the findings set out here.

Structures can show the parent of a compound that is named as a salt.

For the first assay, the target named is T1, human renin (Homo sapiens, UniProt P00797).
T1 construct: taking the active type (67-406); made in house
T1 sequence (P00797 67-406): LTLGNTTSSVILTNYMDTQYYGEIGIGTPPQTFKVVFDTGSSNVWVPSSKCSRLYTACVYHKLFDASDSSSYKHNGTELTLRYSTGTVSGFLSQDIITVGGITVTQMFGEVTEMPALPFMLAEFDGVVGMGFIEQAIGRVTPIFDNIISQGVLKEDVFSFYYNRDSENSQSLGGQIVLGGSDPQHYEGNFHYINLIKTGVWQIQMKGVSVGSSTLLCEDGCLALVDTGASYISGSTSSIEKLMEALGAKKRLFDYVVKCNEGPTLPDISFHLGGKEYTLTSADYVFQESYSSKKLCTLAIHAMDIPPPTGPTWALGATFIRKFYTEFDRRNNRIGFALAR
The assay is described as follows: Measurement of renin inhibition value - B (angiotensinogen substrate, angiotensin I EIA). The assay is classed as biochemical. The note with it: 1 μM test compound, pH 7.4, 37° C., 30 min. As for the experimental part: After the reaction, 0.4 ml of immobilized trypsin inhibitor (Pierce Biotechnology, Inc.) was added to remove the trypsin used in the activation by adsorption. The reaction liquid containing the active type renin was concentrated using Vivaspin 20 (molecular weight cut off 10,000, Vivascience, Inc.), and was diluted with 20 mM Tris-hydrochloric acid (pH 8.0).
(5) Purification of Angiotensinogen
After transfection of the plasmid DNA, the cells were subjected to shaking culture under the conditions of 37° C., 8% CO2 and 125 rpm for 3 days. A 600-ml aliquot of the culture medium was centrifuged at 2,000 rpm for 10 min to recover the culture supernatant containing angiotensinogen. To the culture supernatant was added ammonium sulfate (30% saturated concentration), and the mixture was thoroughly stirred and centrifuged at 8,000 rpm for 20 min. The obtained supernatant was added to TOYO Pearl butyl 650M (2×5 cm, Tosoh Corporation) equilibrated with 50 mM tris-hydrochloric acid (pH 8.0) containing 30% saturated ammonium sulfate, at a flow rate of 25 ml/min to allow adsorption. After washing with equilibration buffer, angiotensinogen was eluted by linear concentration gradient from the buffer used for equilibration to 20 mM tris-hydrochloric acid (pH 8.0). The eluate containing angiotensinogen was applied to repeated concentration and dilution using Vivaspin 20 (molecular weight cut off 10,000, Vivascience, Inc.), and the buffer was changed to 20 mM tris-hydrochloric acid (pH 8.0). The eluate was fed to a 6-ml RESOURCE Q column (Amersham Biosciences, Inc.) equilibrated with 20 mM Tris-hydrochloric acid (pH 8.0) containing 50 mM sodium chloride at a flow rate of 6 ml/min to adsorb the angiotensinogen. After washing the column with the buffer solution used in the equilibration, elution was carried out by means of a linear concentration gradient of sodium chloride from 50 mM to 400 mM. The fractions containing angiotensinogen were collected and concentrated using Vivaspin 20 (molecular weight cut off 10,000, Vivascience, Inc.) to a volume of about 2 ml.
(7) Measurement of Renin Inhibition Value—B
As a substrate for renin activity measurement, the angiotensinogen mentioned in (5) above was used. 1 μeach of the test compound (containing 100% DMSO) was added to each well of a 384-well plate (ABgene). Renin was diluted with a buffer solution for reaction (20 mM sodium phosphate (pH 7.4)) to a concentration of 57 pM, and 14 μl each of the dilution was added to each well. The dilution was left to stand at 37° C. for 10 min, and then 5 μl of each of a 6 μM solution of substrate angiotensinogen was added to each well to initiate the reaction. […] The amount of angiotensin I produced by an enzyme reaction was quantified by Enzyme immunoassay (EIA) described below.
Anti-angiotensin I antibody (Peninsula Laboratories Inc.) diluted 5,000-fold with PBS was added to each well of a 384 well black plate (Nalge Nunc International Co., Ltd.) by 25 μl, and left standing overnight at 4° C. to immobilize the antibody in the plate. The antibody solution was removed, PBS solution (100 μl) containing 1% BSA was added to each well, and the mixture was left standing at room temperature for 2 hr for blocking. The blocking solution was removed, and each well was washed 5 times with 100 μl of 0.05% Tween20-PBS. […] Then, a biotinated angiotensin I solution (AnaSpec, 15 μl) prepared to 1.6 nM with a buffer [20 mM tris-hydrochloric acid (pH 7.4), 150 mM sodium chloride, 0.01% BSA, 0.05% Tween20] was added to each well, mixed with a plate mixer and left standing at room temperature for 1 hr.
As to `COCCCNc1nc(C(C)(C)C)ncc1C(=O)N(CC(C)C)[C@@H]1CNC[C@H](C(=O)N2CCOCC2)C1.O=C(O)/C=C/C(=O)O` [Example 207, 2-tert-butyl-4-[(3-methoxypropyl)amino]-N-(2-methylpropyl)-N-[(3S,5R)-5-(morpholin-4-ylcarbonyl)piperidin-3-yl]pyrimidine-5-carboxamide monofumarate], the “human renin inhibitory activity: inhibitory activity (%) at 1 μM” value came to 98%.

The same assay, now with this note: 1 μM test compound, pH 7.4, 37° C., 30 min, read-out: human renin inhibitory activity: inhibitory activity (%) at 1 μM.
With `CC(C)(C)c1ncc(C(=O)N2CCC(CN)CC2)c(NCc2ccco2)n1` [Example 58, 5-{[4-(aminomethyl)piperidin-1-yl]carbonyl}-2-tert-butyl-N-(2-furylmethyl)pyrimidin-4-amine dihydrochloride], the inhibition at 1 µM was 82%.
With `CC(C)CN(C(=O)c1cnc(C(C)(C)C)nc1NCc1ccco1)[C@@H]1CNC[C@H](C(=O)N2CCC(C)(O)CC2)C1` (relative stereo) [Example 94, 2-tert-butyl-4-[(2-furylmethyl)amino]-N-{(3R*,5S*)-5-[(4-hydroxy-4-methylpiperidin-1-yl)carbonyl]piperidin-3-yl}-N-isobutylpyrimidine-5-carboxamide dihydrochloride], the inhibition at 1 µM turned out to be 97%.
The same measure, in the same setting: as for `COC(=O)[C@H]1CNC[C@@H](N(CC(C)C)C(=O)c2cnc(C(C)(C)C)nc2NCc2ccccc2)C1` (relative stereo) [Example 99, methyl (3R*,5S*)-5-[{[4-(benzylamino)-2-tert-butylpyrimidin-5-yl]carbonyl}(isobutyl)amino]piperidine-3-carboxylate], the figure is 97%; as for `CC(C)CN(C(=O)c1cnc(C(C)(C)C)nc1NCc1ccco1)[C@@H]1CNC[C@H](C(N)=O)C1` [Example 132, 2-tert-butyl-N-[(3S,5R)-5-carbamoylpiperidin-3-yl]-4-[(furan-2-ylmethyl)amino]-N-(2-methylpropyl)pyrimidine-5-carboxamide dihydrochloride], 98%.
The same measure, in the same setting: as for `CCC1CCCCN1C(=O)c1cnc(C(C)(C)C)nc1NCc1ccco1` (centres unmarked) [Example 21, 2-tert-butyl-5-[(2-ethylpiperidin-1-yl)carbonyl]-N-(2-furylmethyl)pyrimidin-4-amine], the figure is 58%; as for `CC(C)CN(C(=O)c1cnc(C(C)(C)C)nc1NCc1ncco1)[C@@H]1CNC[C@H](C(=O)N2CCOCC2)C1` [Example 109, 2-tert-butyl-N-(2-methylpropyl)-N-[(3S,5R)-5-(morpholin-4-ylcarbonyl)piperidin-3-yl]-4-[(1,3-oxazol-2-ylmethyl)amino]pyrimidine-5-carboxamide sulfate], 98%; as for `CNCC1CCN(C(=O)c2cnc(C(C)C)nc2NCc2ccco2)CC1` [Example 63, N-(2-furylmethyl)-2-isopropyl-5-({4-[(methylamino)methyl]piperidin-1-yl}carbonyl)pyrimidin-4-amine], 54%.
Same read-out and setting: the same measure for `CC(C)CN(C(=O)c1cnc(C(C)(C)C)nc1NCc1ccco1)[C@@H]1CNC[C@H](C(N)=O)C1` (relative stereo) [Example 93, N-[(3R*,5S*)-5-(aminocarbonyl)piperidin-3-yl]-2-tert-butyl-4-[(2-furylmethyl)amino]-N-isobutylpyrimidine-5-carboxamide dihydrochloride]: 97%.
Turning to `COC(=O)[C@H]1CNC[C@@H](N(CC(C)C)C(=O)c2cnc(C(C)(C)C)nc2NCCCSC)C1` (relative stereo) [Example 98, methyl (3R*,5S*)-5-[[(2-tert-butyl-4-{[3-(methylthio)propyl]amino}pyrimidin-5-yl)carbonyl](isobutyl)amino]piperidine-3-carboxylate], the inhibition at 1 µM came out at 97%.
The same measure, in the same setting: the same measure for `CNCC1CCN(C(=O)c2cnc(C(C)(C)C)nc2NCc2ccco2)CC1` [Example 59, 2-tert-butyl-N-(2-furylmethyl)-5-({4-[(methylamino)methyl]piperidin-1-yl}carbonyl)pyrimidin-4-amine dihydrochloride]: 86%; for `CC(C)CN(C(=O)c1cnc(C(C)(C)C)nc1NCc1ccco1)[C@@H]1CNC[C@H](C(C)(C)O)C1` (relative stereo) [Example 95, 2-tert-butyl-4-[(2-furylmethyl)amino]-N-[(3R*,5S*)-5-(1-hydroxy-1-methylethyl)piperidin-3-yl]-N-isobutylpyrimidine-5-carboxamide dihydrochloride]: 97%; for `COCCCNc1nc(C(C)(C)C)ncc1C(=O)N(CC(C)C)[C@@H]1CNC[C@H](C(=O)OC)C1` [Example 96, methyl (3R,5S)-5-[({2-tert-butyl-4-[(3-methoxypropyl)amino]pyrimidin-5-yl}carbonyl)(isobutyl)amino]piperidine-3-carboxylate dihydrochloride]: 97%.

The assay is the same for the next values; noted with them: pH 7.4, 1 μM test compound, pH 7.4, 37° C., 30 min, read-out: human renin inhibitory activity: inhibitory activity (%) at 1 μM.
With `COCCCNc1nc(C(C)(C)C)ncc1C(=O)N(CC(C)C)[C@@H]1CNC[C@H](C(=O)N2CCOCC2)C1` [Example 97, 2-tert-butyl-4-[(3-methoxypropyl)amino]-N-(2-methylpropyl)-N-[(3S,5R)-5-(morpholin-4-ylcarbonyl)piperidin-3-yl]pyrimidine-5-carboxamide dihydrochloride], the inhibition at 1 µM was 97%.
